What was measured:
[1] = design: method as in PMID 29481859; conditions: absence of polymer; cited from earlier work
[2] = Equilibrium solubility of the drugs in PVP solutions (shake-flask solubility test); format: physicochemical
Procedure: An excess amount of the drug was added to 15 mL corning tubes containing either pure 0.1 M phosphate buffer (pH 7.4) or 0.1, 0.5 and 1% (w/v) solutions of PVP K15, K30, K60 or […], respectively. […] The saturated solution and the precipitate were separated by centrifugation for 10 min at 13,000 rpm in an Eppendorf Centrifuge 5810 R (Hamburg, Germany), followed by filtration intro ultra-performance liquid chromatography (UPLC) vials using a syringe filter (33 mm, 0.45 μm) PVDF membrane (2 mL filter sample prewet volume), acquired from Merck (Darmstadt, Germany). The tests were conducted in triplicate. The concentration of drug in the respective samples was quantified by reverse-phase chromatography using a Waters Acquity Classic UPLC system (Milford, MA, USA) equipped with an automated sample injector, a binary pump and a tunable UV detector. All samples were analyzed using a Waters Acquity UPLC BEH C18 column (130 Å, 1.7 μm, 2.1 × 50 mm) (Milford, MA, USA) at a column temperature of 50 °C for ketoconazole and tadalafil and 80 °C for albendazole. The samples were injected with a volume of s 6 μL and subsequently eluted at a flow rate of 0.8 mL/min. For albendazole and tadalafil, eluent A was a mixture of 90% (v/v) sodium sulfate (60 mM), di-ammonium hydrogen phosphate (5.5 mM) and phosphoric acid (34.5 mM) in Milli-Q water (pH 2.3) and 10% (v/v) acetonitrile. For ketoconazole, eluent A was a mixture of 90% (v/v) sodium sulfate (60 mM), di-ammonium hydrogen phosphate (5.5 mM) and phosphoric acid (34.5 mM) in Milli-Q water (pH 7.2) and 10% (v/v) acetonitrile. For tadalafil, albendazole and ketoconazole, eluent B was a mixture of 20% (v/v) Milli-Q water and 80% (v/v) acetonitrile. Albendazole was quantified in the samples using UV at a wavelength of 229 nm, while tadalafil was quantified at 284 nm and ketoconazole at 240 nm.

[3] = Supersaturation study by solvent-shift method (µDISS Profiler): induction time and slope of time–concentration profiles; format: physicochemical; conditions: for Influence of PVP concentration on tind and slope of the time–concentration profile / Influence of viscosity of the PVP solution on tind or slope of the time–concentration profile: multiple linear regression coefficient plot, 95% confidence interval
Source text: Time-concentration profiles of the drugs in a supersaturated solution in the absence and presence of PVP were obtained to study the influence of the polymer on the onset of the nucleation and precipitation rate of the drug from a supersaturated solution. Supersaturation of the drug was induced by the use of a method previously developed. Briefly, a […] ProfilerTM (Billerica, MA, USA) was used to obtain in situ UV spectra in the range from 200 to 720 nm. Probe tip lengths of 5, 10 or 20 mm were selected to obtain an absorbance in the range between 0.3 and 1. The vials were stirred using a crossbar magnet at ~100 rpm at a temperature of 37 °C. […] The UV wavelength range used to quantify the drug was 267-288 nm for albendazole, 304-360 nm for ketoconazole and 299-328 nm for tadalafil. […] Standard curves were prepared with six replicates by adding aliquots of 15 μL DMSO stock solution of the drug to the dissolution medium. The initial concentration of the drug was determined by using the highest concentration of the drug for which no instantaneous precipitation occurred. Precipitation was detected by a deviation from the linearity of the standard curve, a sharp shift in the baseline in the UV spectrum or through visual inspection of the solution. To induce supersaturation, 100 μL of a DMSO stock solution of the drug was transferred into glass vials containing 10 mL solutions of PVP K15, K30, K60 or […]. […] The drug concentration was monitored in situ by the second derivative of the UV absorbance. The second derivative was used to minimize UV interferences from the precipitate. The experiments were ended when the concentrations of the respective drugs reached their equilibrium solubility. The induction time of the time-concentration profiles was used as a surrogate for the onset of the nucleation of the respective drugs, and the slope of the time-concentration profiles was used as a surrogate for the precipitation rate of the respective drugs. The induction time (tind) and the slope of the time-concentration profile were determined using TA Instruments Trios software (New Castle, DE, USA). The induction time of the time-concentration profile in minutes was estimated using the onset time function via the tangent. The slope of the time-concentration profile in (μg/mL)/min was estimated using the slope function. Multiple linear regression analysis was conducted using Umetrics MODDE11 pro (Glostrup, Denmark) to delineate the influence of PVP molecular weight and concentration on the onset of nucleation and the precipitation rate of albendazole, tadalafil and ketoconazole. The tind and slope from the time-concentration profiles were used as the response values, whereas PVP concentration and the viscosity of the PVP solutions were used as the input predictors. It should be noted that the viscosity of the PVP solutions is used instead of the molecular weights of PVP, and therefore, the impact of the viscosity of solutions of PVP is the same as that of the molecular weight. The three levels for the concentration factor were 0.1, 0.5 and 1% (w/v), and the four levels for the viscosity factor were the viscosities of the solutions of PVP K15, K30, K60 and […]. […] The equilibrium solubility, viscosity of the PVP solutions, tind and slope of time-concentration profile during supersaturation of the drugs are given as the mean ± standard deviation (SD). […] Microsoft Excel (Redmond, WA, USA) was used for this analysis. The criteria for determining statistical significance in all tests were set at p < 0.05.

[4] = same concentration of repeating monomer units of PVP K15, K30, K60 and K120 (effect of molecular weight), p > 0.05
[5] = solution of 0.1% (w/v) PVP compared to the phosphate buffer pH 7.4, 37 °C, ANOVA
[6] = solutions of 0.5 and 1% (w/v) PVP, pH 7.4, 37 °C, ANOVA p < 0.05
[7] = 1 mPa.s isoviscous solutions of PVP K15, K30, K60 and K120, increasing PVP molecular weight, p < 0.05
[8] = PVP K15, K30, K60 and K120, PVP concentration increased from 0.1 to 0.5% and again from 0.5 to 1% (w/v), ANOVA p < 0.05
[9] = PVP K15, K30, K60 and K120, concentration increased from 0.1 to 0.5% and again from 0.5 to 1% (w/v), p < 0.05
[10] = PVP K15, K30, K60 and K120 compared at the same concentration (0.1, 0.5, 1% w/v), p > 0.05
[11] = same concentrations (0.1, 0.5, 1% w/v) of PVP K15, K30, K60 and K120 (effect of molecular weight), p > 0.05

## NS(=O)(=O)c1cc2c(cc1Cl)N=C(CSCc1ccccc1)NS2(=O)=O [benzthiazide]
[1]
  Onset time of nucleation: 4 min

## CN1CC(=O)N2[C@H](c3ccc4c(c3)OCO4)c3[nH]c4ccccc4c3C[C@@H]2C1=O [tadalafil]
[2]; [4]
  Equilibrium solubility: No statistically significant increase
[2]; [5]
  Equilibrium solubility: no statistically significant increase
[2]; [6]
  Equilibrium solubility: statistically significant increase
[3]; [7]
  Slope of the time–concentration profile (precipitation rate): statistically significant difference
[3]; [8]
  Induction time (tind): statistically significant increase
[3]; [9]
  Slope of the time–concentration profile (precipitation rate): statistically significant difference
[3]; [10]
  Slope of the time–concentration profile (precipitation rate): no statistically significant differences
[3]
  Influence of PVP concentration on tind and slope of the time–concentration profile: significant influence
  Influence of viscosity of the PVP solution on tind or slope of the time–concentration profile: no significant influence
[3]; [11]
  Induction time (tind): no statistically significant differences

## CC(=O)N1CCN(c2ccc(OCC3COC(Cn4ccnc4)(c4ccc(Cl)cc4Cl)O3)cc2)CC1 (stereo not shown) [ketoconazole]
[2]; increasing the concentration of PVP to 1% (w/v), p < 0.05
  Equilibrium solubility: further statistically significant increase
[2]; [4]
  Equilibrium solubility: No statistically significant increase
[2]; solutions of 0.1% and 0.5% (w/v) PVP compared to phosphate buffer, p < 0.05
  Equilibrium solubility: statistically significant increase
[3]; 0.1% (w/v) PVP K15 compared with PVP K30, K60 and K120, p < 0.05
  Slope of the time–concentration profile (precipitation rate): statistically significant difference
[3]; [7]
  Slope of the time–concentration profile (precipitation rate): statistically significant difference
[3]; PVP K15, K30, K60 and K120, concentration increased from 0.1 to 0.5% (w/v), p < 0.05
  Slope of the time–concentration profile (precipitation rate): statistically significant difference
[3]; PVP K15, concentration increased from 0.1 to 0.5% and again from 0.5 to 1% (w/v), p < 0.05
  Induction time (tind): statistically significant increase
[3]; PVP K30, concentration increased from 0.1 to 0.5% (w/v), p > 0.05
  Induction time (tind): no statistically significant increase
[3]; PVP K30, concentration increased from 0.5 to 1% (w/v), p < 0.05
  Induction time (tind): statistically significant increase
[3]; PVP K60 and K120, concentration increased from 0.1 to 0.5% and again from 0.5 to 1% (w/v), p > 0.05
  Induction time (tind): no statistically significant differences
[3]
  Influence of PVP concentration on tind and slope of the time–concentration profile: significant influence
  Influence of viscosity of the PVP solution on tind or slope of the time–concentration profile: no significant influence
[3]; [11]
  Induction time (tind): no statistically significant differences

## CCCSc1ccc2nc(NC(=O)OC)[nH]c2c1 [albendazole, Albendazole]
[2]; [4]
  Equilibrium solubility: No statistically significant increase
[2]; [5]
  Equilibrium solubility: no statistically significant increase
[2]; [6]
  Equilibrium solubility: statistically significant increase
[3]; [7]
  Slope of the time–concentration profile (precipitation rate): statistically significant difference
[3]; [8]
  Induction time (tind): statistically significant increase
[3]; [9]
  Slope of the time–concentration profile (precipitation rate): statistically significant difference
[3]; [10]
  Slope of the time–concentration profile (precipitation rate): no statistically significant differences
[3]
  Influence of PVP concentration on tind and slope of the time–concentration profile: significant influence
  Influence of viscosity of the PVP solution on tind or slope of the time–concentration profile: no significant influence
[3]; [11]
  Induction time (tind): no statistically significant differences

— article PMC10304178, “Influence of Polyvinylpyrrolidone Molecular Weight and Concentration on the Precipitation Inhibition of Supersaturated Solutions of Poorly Soluble Drugs” (Pharmaceutics, 2023)
